Results published in ChEMBL document CHEMBL1129193, “Isosteres of nucleoside triphosphates” (Bioorg Med Chem Lett, 1996).

Experiments:
C8166 [1] = test: Compound was evaluated for anti-HIV activity against HIV-1 infected C8166 cell lines; format: functional, cell-based; settings: Homo sapiens
C8166 [2] = test: Concentration of compound required to reduce viability of C8166 cells by 50%.; format: functional; settings: Homo sapiens
CCRF-CEM [3] = test: Concentration of compound required to reduce viability of CEM/0 cells by 50%.; format: functional; settings: Homo sapiens
CCRF-CEM [4] = test: Compound was evaluated for anti-HIV activity against HIV-1 infected CEM/0 cell lines.; format: functional, cell-based; settings: Homo sapiens
CCRF-CEM [5] = test: Compound was evaluated for anti-HIV activity against HIV-2 infected CEM/0 cell lines.; format: functional, cell-based; settings: Homo sapiens
[6] = molecular target: Human immunodeficiency virus type 1 reverse transcriptase (Human immunodeficiency virus 1, UniProt Q72547); test: Inhibition of HIV-1 reverse transcriptase.
CEM-TK(-) = test: Compound was evaluated for anti-HIV activity against HIV-2 infected CEM/TK- cell lines.; settings: Homo sapiens
Homo sapiens = species on record: Homo sapiens; test: Compound was evaluated for anti-HIV activity against HIV-2 infected CEM/TK- cell lines.; format: functional, organism-based

Row | SMILES | EC50 (C8166 [1]) [µM] | EC50 (CCRF-CEM [4]) [µM] | EC50 (CCRF-CEM [5]) [µM] | IC50 [6] [µM] | EC50 (CEM-TK(-)) [µM] | EC50 (Homo sapiens) [µM] | CC50 (C8166 [2]) [µM] | CC50 (CCRF-CEM [3]) [µM]
1 | Cc1cn(C2C=CC(COC(=O)CC3(CC(=O)O)OCOC3=O)O2)c(=O)[nH]c1=O (centres undefined) | 4 | 3.47 | 4.5 | > 100 | > 250 | – | 1000 | > 250
2 | C=CCOC(=O)CC1(CC(=O)OCC2C=CC(n3cc(C)c(=O)[nH]c3=O)O2)OCOC1=O (centres undefined) | 0.8 | 2 | 1.6 | > 100 | 78 | – | 500 | 179
3 | Cc1cn(C2C=CC(CNC(=O)CC(O)(CC(=O)O)C(=O)O)O2)c(=O)[nH]c1=O (centres undefined) | > 2500 | – | – | > 100 | – | – | > 2500 | –
4 | COC(=O)CC1(CC(=O)OCC2C=CC(n3cc(C)c(=O)[nH]c3=O)O2)OCOC1=O (centres undefined) | 0.8 | 0.95 | 2.5 | > 100 | 110 | – | 400 | 100
5 | Cc1cn(C2C=CC(COC(=O)CC(O)(CC(=O)O)C(=O)O)O2)c(=O)[nH]c1=O (centres undefined) | 3.2 | 4 | 4 | > 100 | – | > 250 | 500 | 209
6 | Cc1cn([C@H]2C[C@H](N=[N+]=[N-])[C@@H](CO)O2)c(=O)[nH]c1=O [ZIDOVUDINE] | 0.016 | – | 0.006 | > 100 | > 250 | – | > 1000 | > 250
7 | Cc1cn(C2C=CC(COC(=O)CC3(CC(=O)OCc4ccccc4)OCOC3=O)O2)c(=O)[nH]c1=O (centres undefined) | 8 | 1.35 | 3 | – | > 250 | – | 400 | 92.8

Now from value to molecule, other results behind:

Row | EC50 (C8166 [1]) [µM] | EC50 (CCRF-CEM [4]) [µM] | EC50 (CCRF-CEM [5]) [µM] | IC50 [6] [µM] | EC50 (CEM-TK(-)) [µM] | EC50 (Homo sapiens) [µM] | SMILES | CC50 (C8166 [2]) [µM] | CC50 (CCRF-CEM [3]) [µM]
8 | 1.6 | 1.6 | 0.55 | > 100 | 87 | – | Cc1cn(C2C=CC(COC(=O)CC(O)(CC(=O)OCc3ccccc3)C(=O)OCc3ccccc3)O2)c(=O)[nH]c1=O (centres undefined) | 500 | 64
9 | 1 | 0.7 | 0.55 | > 100 | 72 | – | C=CCOC(=O)CC(O)(CC(=O)OCC1C=CC(n2cc(C)c(=O)[nH]c2=O)O1)C(=O)OCC=C (centres undefined) | 500 | 69
10 | 1000 | > 250 | > 250 | > 100 | – | – | COC(=O)CC(O)(CC(=O)NCC1C=CC(n2cc(C)c(=O)[nH]c2=O)O1)C(=O)OC (centres undefined) | > 1000 | > 250
11 | 400 | > 250 | > 250 | > 100 | – | – | C=CCOC(=O)CC(O)(CC(=O)NCC1C=CC(n2cc(C)c(=O)[nH]c2=O)O1)C(=O)OCC=C (centres undefined) | > 1000 | > 250
